Literature values as cited in patent publication US9561272B2, “Compositions and methods for modulating immune responses” (The University of Queensland, priority 2006, dated 2017).
Read-outs that look alike come from different tables or passages of the source.

System: NF-κB
Settings: cited from earlier work
[1] = Table 3, miscellaneous inhibitors of NF-κB, step of NF-κB function inhibited, per the cited reference

O=C(O)c1cc(/N=N/c2ccc(S(=O)(=O)Nc3ccccn3)cc2)ccc1O [Sulfasalazine]
Effect or point of inhibition [1]: DNA binding

CS(=O)(=O)Nc1cc2occ(NC=O)c(=O)c2cc1Oc1ccccc1
Effect or point of inhibition [1]: DNA binding

CCCCCCCCCCCCC/C=C/[C@@H](O)[C@@H](N)CO[C@@H]1O[C@H](CO)[C@H](O)[C@H](O)[C@H]1O [Psychosine]
Effect or point of inhibition [1]: Transactivation

[SH-].[SH-].[S]=[Mo]=[S] [Tetrathiomolybdate]
Effect or point of inhibition [1]: Transactivation

mercury
Effect or point of inhibition: DNA binding

CC1(C)C[C@@H]1C(=O)Nc1ccc(Oc2ccc(NC(=O)[C@H]3CC3(C)C)cn2)cc1 [APC0576]
Effect or point of inhibition [1]: Transactivation

C[S+]([O-])c1ccc(-c2nc(-c3ccc(F)cc3)c(-c3ccncc3)[nH]2)cc1 (stereo not shown) [SB203580 (p38 MAPK inhibitor)]
Effect or point of inhibition: Transactivation

OC[C@@H](O)[C@H](O)[C@@H](O)CO [Xylitol]
Effect or point of inhibition [1]: DNA binding

CC1=C(CO)C(=O)O[C@@H]([C@@H](C)[C@H]2CC[C@H]3[C@@H]4C[C@H]5O[C@]56[C@@H](O)C=CC(=O)[C@]6(C)[C@H]4CC[C@]23C)C1 [Withaferin A]
Effect or point of inhibition [1]: DNA binding

COc1cc(/C=C/C(=O)c2ccc(F)cc2)cc(OC)c1OC [3,4,5-trimethoxy-4′-fluorochalcone]
Effect or point of inhibition [1]: Transactivation

O=C(C=Cc1ccc(O)cc1)NCCc1c[nH]c2ccc(O)cc12
Effect or point of inhibition [1]: DNA binding

Cc1nc(C)c(C)nc1C [Tetramethylpyrazine]
Effect or point of inhibition [1]: DNA binding

CC(=O)OC(CC=C(C)C)C(C)=CC(O)CC(C)=CCOc1ccc2ccc(=O)oc2c1 (stereo not shown)
Effect or point of inhibition [1]: Transactivation

N[C@@H](CCC(=O)N[C@@H](CSN=O)C(=O)NCC(=O)O)C(=O)O [Nitrosoglutathione]
Effect or point of inhibition: DNA binding

COc1ccc(C=CC(=O)Nc2ccccc2C(=O)O)cc1OC
Effect or point of inhibition [1]: Transactivation

COc1cc(O)c(CC=C(C)C)c(O)c1C(=O)/C=C/c1ccc(O)cc1 [Xanthohumol (a hops prenylflavonoid)]
Effect or point of inhibition [1]: DNA binding

O=c1cc(N2CCOCC2)oc2c(-c3ccccc3)cccc12 [LY294,002]
Effect or point of inhibition [1]: Transactivation

Artemisolide
Effect or point of inhibition [1]: Transactivation

C[n+]1c2n(c(=O)c3ccccc31)CCc1c-2[nH]c2ccccc12 [Dehydroevodiamine]
Effect or point of inhibition [1]: Transactivation

C[C@H]1CCC[C@H](O)CCC/C=C/c2cc(O)cc(O)c2C(=O)O1 [Alpha-zearalenol]
Effect or point of inhibition [1]: Transactivation

COc1cc([C@@H]2c3cc4c(c(OC)c3[C@H](O)[C@H]3COC(=O)[C@H]23)OCO4)cc(OC)c1O
Effect or point of inhibition [1]: Transactivation

COc1ccc(C(C)=O)c(O)c1 [Paeonol (from Mountain Cortx)]
Effect or point of inhibition [1]: Transactivation

COc1c(O)cc(O)c2c(=O)cc(-c3ccccc3)oc12 [Wogonin (5,7-dihydroxy-8-methoxyflavone)]
Effect or point of inhibition [1]: DNA binding

C=C(C)[C@@H]1CC[C@]2(C(=O)O[C@@H]3O[C@H](CO[C@@H]4O[C@H](CO)[C@@H](O[C@@H]5O[C@@H](C)[C@H](O)[C@@H](O)[C@H]5O)[C@H](O)[C@H]4O)[C@@H](O)[C@H](O)[C@H]3O)CC[C@]3(C)[C@H](C[C@H]4OC(=O)C[C@@H](O)[C@]5(C)[C@@H]4[C@@]3(C)CC[C@H]5C(=C)C)[C@@H]12 [Chiisanoside]
Effect or point of inhibition: RelA Nuclear translocation

N#CC(C#N)=Cc1ccc([N+](=O)[O-])c(O)c1 [Tyrphostin AG-126]
Effect or point of inhibition [1]: DNA binding

Tom1 (target of Myb-1) overexpression
Effect or point of inhibition [1]: DNA binding

COC[C@H]1OC(=O)c2coc3c2[C@@]1(C)C1=C(C3=O)[C@@H]2CCC(=O)[C@@]2(C)C[C@H]1OC(C)=O [Wortmannin (fungal metabolite)]
Effect or point of inhibition [1]: Transactivation

S=C=NCCc1ccccc1 [Phenethylisothiocyanate]
Effect or point of inhibition [1]: Transactivation

CC(/C=C/C(=O)NO)=C\[C@@H](C)C(=O)c1ccc(N(C)C)cc1 [Trichostatin A]
Effect or point of inhibition [1]: RelA DNA binding

O=C1NC(=O)C(Cc2ccc3cc(OCc4ccccc4F)ccc3c2)S1 (stereo not shown) [Thiazolidinedione MCC-555]
Effect or point of inhibition [1]: DNA binding

COC1=C[C@@H]2[C@@H]3Cc4ccc(OC)c(O)c4[C@]2(CCN3C)CC1=O [Sinomenine]
Effect or point of inhibition [1]: DNA binding

c1cc2c(cc1[C@H]1OC[C@H]3[C@@H]1CO[C@@H]3c1ccc3c(c1)OCO3)OCO2 [Sesamin (from sesame oil)]
Effect or point of inhibition [1]: DNA binding

O=c1cc(-c2ccc(O)c(O)c2)oc2cc(O)cc(O)c12 [Luteolin]
Effect or point of inhibition [1]: p65 Transactivation

CCCCCCCCCCCCCC(=O)OCC/C(SS/C(CCOC(=O)CCCCCCCCCCCCC)=C(\C)N(C=O)Cc1cnc(C)nc1N)=C(/C)N(C=O)Cc1cnc(C)nc1N
Effect or point of inhibition: Nuclear translocation

Siva-1
Effect or point of inhibition [1]: DNA binding

O=C(Nc1ncc([N+](=O)[O-])s1)c1ccc([N+](=O)[O-])c(Cl)c1 [SM-7368 (small molecule)]
Effect or point of inhibition [1]: DNA binding

COc1ccc(-c2cc(=O)c3c(OC)c(OC)c(OC)c(OC)c3o2)cc1OC [Nobiletin]
Effect or point of inhibition [1]: Transactivation

S=C([S-])OC1CC2CC1C1CCCC21.[K+] (stereo not shown)
Effect or point of inhibition [1]: Transactivation

Cn1cc(C2=C(c3cn(CCCSC(=N)N)c4ccccc34)C(=O)NC2=O)c2ccccc21 [RO31-8220 (PKC inhibitor)]
Effect or point of inhibition [1]: Transactivation

C[C@H]1[C@H](C)CC[C@]2(C(=O)O)CC[C@]3(C)C(=CC[C@@H]4[C@@]5(C)CC[C@H](O)C(C)(C)[C@@H]5CC[C@]43C)[C@H]12 [Ursolic acid]
Effect or point of inhibition [1]: DNA binding

CCOC(=O)c1cnc(NC2=C(C)C(=O)NC2=O)nc1C(F)(F)F
Effect or point of inhibition [1]: Transactivation

C=CCNC1=C2C[C@@H](C)C[C@H](OC)[C@H](O)[C@@H](C)/C=C(\C)[C@H](OC(N)=O)[C@@H](OC)/C=C\C=C(/C)C(=O)NC(=CC1=O)C2=O [17-allylamino-17-demethoxygeldanamycin]
Effect or point of inhibition [1]: Transactivation

Oc1ccc(O)cc1 [Hydroquinone (HQ)]
Effect or point of inhibition: DNA binding

CCCCC/C=C\C/C=C\CCCCCCCC(=O)OCC(COC(=O)CCCCCCC/C=C\C/C=C\CCCCC)OC(=O)CCCCCCC/C=C\C/C=C\CCCCC [Trilinolein]
Effect or point of inhibition [1]: Transactivation

N[C@@H](Cc1c[nH]cn1)C(=O)O [Histidine]
Effect or point of inhibition [1]: Transactivation

CC(C)[C@]12O[C@H]1[C@@H]1O[C@]13[C@]1(O[C@H]1C[C@H]1C4=C(CC[C@@]13C)C(=O)OC4)[C@@H]2O
Effect or point of inhibition [1]: DNA binding
